Where two headings read alike, the source gives them in different places. Where only a bound is given, the exact number is not on record here.

These results are taken from paper PMC9930120 (Journal of Chemical Information and Modeling, 2023).

Assay [1] has as its target T1, human CB2 (Homo sapiens, UniProt P34972). Conditions: cited from earlier work.
In assay [2] the target is T1, human CB2. The assay is described as follows: biochemical. It counts as binding. Conditions: for CB2 Ki (μM, 95% CI) / CB2 pKi ± SEM / Ki: [3H]CP-55,940 displacement, CHO-K1 membranes. Here is the method: The compounds selected for the in vitro binding assay were purchased via MolPort, SIA, Riga, Latvia (Supporting Information S2). Membrane preparations from CHO-K1 cells expressing the human CB2 (ChemiSCREEN Membrane Preparation Recombinant Human CB2 Cannabinoid Receptor. Merck, USA) were incubated in duplicate with 0.8 nM [^3H]CP-55,940 (specific activity: 101 Ci/mmole, PerkinElmer, USA) in a 50 mM Tris–HCl, pH = 7.4 buffer supplemented with 2.5 mM EDTA, 5 mM MgCl2, 0.5 mg/mL BSA and increasing concentrations of the compounds tested. Compounds were dissolved in 50% DMSO and added to the reaction mixture at 10 concentrations equally spaced on a log scale (10^–10–10^–4.5 M). The final DMSO concentration was 5%. […] The reaction mixture (500 μL) was incubated for 1.5 h at 30 °C. Before harvesting, Brandel Whatman GF/B Filter Paper was presoaked with 0.5% polyethylenimine buffer for 30 min and then washed with 2 mL of 50 mM Tris–HCl buffer (pH = 7.4) containing 0.5% BSA to minimize nonspecific binding. The reaction was terminated by depositing the samples onto the filter paper with the Brandel M–24 Cell Harvester. Samples were then rapidly washed three times with 2 mL of wash buffer (50 mM Tris–HCl pH 7.4, 2.5 mM EDTA, 5 mM MgCl2, 0.5 mg/mL BSA) to separate the bound radioligand from free. Filters were then air-dried for 1.5 h at 60 °C. After drying, filter discs were placed on a flexible 24-well plate and 500 μL of EcoScint-20 scintillant (PerkinElmer, USA) was added to each well. Plates were counted (2 min per well) in a Trilux MicroBeta counter (PerkinElmer, USA). Data were analyzed with GraphPad Prism 5.0 software.

A further assay has as its target T2, human CB1 receptors (Homo sapiens, UniProt P21554).
T2 construct: purchased Merck; host or cells: Chem-1
The assay is described as follows: CB1 radioligand displacement assay ([3H]CP-55,940). It counts as binding. Conditions: for CB1 Ki (μM, 95% CI) / CB1 pKi ± SEM: [3H]CP-55,940 displacement, Chem-1 membranes. Here is the method:
Membrane preparations from Chem-1 cells expressing the human CB1 receptors (ChemiSCREEN CB1 Cannabinoid Receptor Membrane Preparation. Merck, USA) were incubated in duplicate with 1 nM [^3H]CP-55,940 (specific activity: 108.5 Ci/mmole, PerkinElmer, USA) in a 50 mM Tris–HCl, pH = 7.4 buffer supplemented with 1 mM CaCl2, 5 mM MgCl2, 0.2% BSA and increasing concentrations of the compounds tested. Compounds were dissolved in 50% DMSO and added to the reaction mixture at 10 concentrations equally spaced on a log scale (10^–10–10^–4.5 M). The final DMSO concentration was 5%. […] The reaction mixture (500 μL) was incubated for 1.5 h at 30 °C. Before harvesting, Brandel Whatman GF/B Filter Paper was presoaked with 0.5% polyethylenimine buffer for 30 min and then washed with 2 mL of 50 mM Tris–HCl buffer (pH = 7.4) containing 0.5% BSA to minimize nonspecific binding. The reaction was terminated by depositing the samples onto the filter paper with the Brandel M-24 Cell Harvester. Samples were then rapidly washed three times with 2 mL of wash buffer (50 mM Tris–HCl pH 7.4, 500 mM NaCl, and 5 mM MgCl2) to separate the bound radioligand from the free one. The rest of the procedure was the same as for CB2.

Assay [3] deals with T1, human CB2. The assay is described as follows: CB2 [35S]GTPγS assay. The class given is biochemical. The conditions noted are these: compounds at 10 μM, 100 nM CP-55,940 as stimulating ligand. Details: purchased PerkinElmer ES-111-M400UA; host or cells: CHO-K1. Here is the method: Ten micromolar concentrations of each compound were incubated in triplicate with membrane preparations from CHO-K1 cells expressing the human CB2 receptor (0.5 μg per well) (PerkinElmer, Cat. No. ES-111-M400UA) in an assay buffer containing 50 mM Tris–HCl, pH = 7.4, 0.2 mM EGTA, 3 mM MgCl2, 100 mM NaCl, 30 μM GDP and 1 mg/mL BSA) in the presence of 0.08 nM [^35S] guanosine 5′-[γ-thio]triphosphate ([^35S]GTPγS) (specific activity: 1250 Ci/mmole, PerkinElmer). Nonspecific binding was determined with 100 μM of unlabeled GTPγS. CP-55,940 (100 nM) was used as stimulating ligand. The final DMSO concentration in the assay was 5%. The reaction mixture was incubated for 60 min at 30 °C. Next, the samples were deposited under vacuum with the FilterMate Harvester (PerkinElmer, USA) onto Unifilter GF/B Plates (PerkinElmer, USA) presoaked with wash buffer (50 mM Tris–HCl, pH = 7.4). The samples were then rapidly washed with 2 mL of wash buffer. Filter plates were dried for 30 min at 50 °C and 40 μL of MicroScint PS (PerkinElmer, USA) scintillation fluid was added to each well. Radioactivity was counted in a Trilux MicroBeta^2 counter (PerkinElmer, USA). Data were analyzed with GraphPad Prism 5.0 software. Results were expressed as percent of basal [^35S]GTPγS binding in the presence of CP-55,940 from three separate experiments. Basal binding was set to 100%.

The mark [4] stands for this setting: read-out: CB2 pKi ± SEM (converted).

T2 sequence (P21554 whole entry): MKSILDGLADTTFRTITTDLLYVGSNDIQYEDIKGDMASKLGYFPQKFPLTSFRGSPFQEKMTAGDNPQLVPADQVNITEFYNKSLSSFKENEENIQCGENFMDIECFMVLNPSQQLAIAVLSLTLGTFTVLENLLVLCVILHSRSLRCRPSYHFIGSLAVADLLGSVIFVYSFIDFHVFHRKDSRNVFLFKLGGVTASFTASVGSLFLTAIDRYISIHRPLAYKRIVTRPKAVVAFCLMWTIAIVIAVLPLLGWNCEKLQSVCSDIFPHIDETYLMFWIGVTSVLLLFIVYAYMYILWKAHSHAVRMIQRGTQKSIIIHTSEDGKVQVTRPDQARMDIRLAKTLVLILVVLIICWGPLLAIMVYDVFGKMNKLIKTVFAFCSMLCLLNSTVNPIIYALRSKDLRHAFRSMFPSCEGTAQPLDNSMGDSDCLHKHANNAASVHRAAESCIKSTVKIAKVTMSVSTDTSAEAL
T1 sequence (P34972 whole entry): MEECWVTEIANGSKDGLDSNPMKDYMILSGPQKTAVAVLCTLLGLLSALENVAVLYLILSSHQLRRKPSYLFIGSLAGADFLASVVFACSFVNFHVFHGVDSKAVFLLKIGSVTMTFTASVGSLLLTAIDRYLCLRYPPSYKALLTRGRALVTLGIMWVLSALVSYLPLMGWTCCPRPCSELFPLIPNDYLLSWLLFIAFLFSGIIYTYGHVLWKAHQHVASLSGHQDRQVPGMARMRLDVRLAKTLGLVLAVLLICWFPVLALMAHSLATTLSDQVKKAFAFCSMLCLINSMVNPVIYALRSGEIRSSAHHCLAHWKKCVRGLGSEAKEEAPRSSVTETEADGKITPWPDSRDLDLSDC

Turning to `COc1ccc(C(=O)c2c(C)n(CCN3CCOCC3)c3cc(I)ccc23)cc1` [AM-630], the Ki on human CB2 [1] is 31.2 nM.

In the case of `Cc1sc2nc(SCC(=O)c3ccc4c(c3)N(C)C(=O)CO4)nc(O)c2c1-c1ccccc1` [AS-1], on human CB2 [2], the “CB2 Ki (μM, 95% CI)” value was “no activity” and the “CB2 pKi ± SEM” value was “no activity”.

For the compound `CCOC(=O)c1ccc(NC(=O)Cn2c(=O)nc(-c3ccccc3)c3cc(Cl)ccc32)cc1` [AS-2], at human CB2 [2], the “CB2 Ki (μM, 95% CI)” value was “no activity” and the “CB2 pKi ± SEM” value was “no activity”.

Regarding `COc1cccc(Oc2c(C)oc3c4c(ccc3c2=O)OCN(Cc2ccccn2)C4)c1` [AS-3], on human CB2 [2], the “CB2 Ki (μM, 95% CI)” value is on record as “no activity” and the “CB2 pKi ± SEM” value was “no activity”.

With `Cc1nn(-c2ccccc2)c(C)c1CCc1nn2c(-c3ccccc3F)nnc2s1` [AS-4], at human CB2 [2], the “CB2 Ki (μM, 95% CI)” value was “no activity” and the “CB2 pKi ± SEM” value is given as “no activity”.

In the case of `Cc1ccccc1-c1cc(C(=O)N2CCN(Cc3ccc4c(c3)OCO4)CC2)c2ccccc2n1` [AS-5], the Ki at human CB2 [2] (setting [4]) was 0.209 µM. At human CB1 receptors, the “CB1 Ki (μM, 95% CI)” value is recorded as “no activity” and the “CB1 pKi ± SEM” value is listed as “no activity”. Further, the CB2 intrinsic activity entry at human CB2 [3] was “CB2 antagonists”.

For `Cc1cc(CSc2nnc(-c3nn(Cc4ccccc4)c(=O)c4ccccc34)o2)no1` [AS-6], at human CB2 [2], the “CB2 Ki (μM, 95% CI)” value is “no activity” and the “CB2 pKi ± SEM” value was “no activity”.

Regarding `COc1ccc(C(=O)/C=C(\C(=O)c2ccccc2)c2ccccc2)cc1CN1CCOCC1` [AS-7], the “selectivity index for CB2 (Ki-CB1/Ki-CB2)” value on human CB2 [2] is listed as > 40. For the same compound, the Ki was 0.065 µM at human CB2 [2] (CB2 Ki (μM, 95% CI)); 0.0661 µM on human CB2 [2] (CB2 pKi ± SEM); 2670 nM on human CB1 receptors. Besides, the “CB1 pKi ± SEM” value on human CB1 receptors came to 5.57 ± 0.9. The CB2 intrinsic activity result at human CB2 [3] is listed as “CB2 antagonists”.

As for `C[C@H](Sc1nnc2c3ccccc3nc(-c3ccccc3)n12)C(=O)NC[C@@H]1CCCO1` [AS-8], the Ki at human CB2 [2] (read-out: CB2 Ki (μM, 95% CI)) came to 6.37 µM. Moreover, on human CB1 receptors, the “CB1 Ki (μM, 95% CI)” value is given as “no activity” and the “CB1 pKi ± SEM” value is given as “no activity”.

Turning to `COc1cccc(-c2nn(Cn3nc([N+](=O)[O-])cc3C)c(-c3cccc(OC)c3)c2Cl)c1` [AS-9], the Ki at human CB2 [2] (setting [4]) is 2.09 µM. In addition, on human CB1 receptors, the “CB1 Ki (μM, 95% CI)” value is reported as “no activity” and the “CB1 pKi ± SEM” value is “no activity”.

As to `Cc1nn(Cc2ccccc2)c(Cl)c1C(=O)NCc1ccccc1Cn1ccnc1` [AS-10], the Ki on human CB2 [2] (read-out: CB2 Ki (μM, 95% CI)) was 17.9 µM; on human CB2 [2] (setting [4]) it was 18.2 µM.

On to `O=C(NCc1cccs1)c1cccc(Nc2nn3c(=O)c4ccccc4nc3s2)c1` [AS-11], for which, on human CB2 [2], the “CB2 Ki (μM, 95% CI)” value was “no activity” and the “CB2 pKi ± SEM” value is listed as “no activity”.

`Cc1cc(C(=O)Nc2cccc(C)c2C)c2c(C)nn(Cc3ccccc3)c2n1` [AS-12]: at human CB2 [2], the “CB2 Ki (μM, 95% CI)” value was “no activity” and the “CB2 pKi ± SEM” value is given as “no activity”.

With `Cc1nn(-c2ccccc2)c(C)c1C(=O)C(=O)Nc1cc(F)ccc1NC(=O)c1ccccn1` [AS-13], on human CB2 [2], the “CB2 Ki (μM, 95% CI)” value is on record as “no activity” and the “CB2 pKi ± SEM” value is recorded as “no activity”.

On to `COCc1cc2nn(CC(=O)NCc3ccccc3Cl)c(=O)n2c(-c2ccccc2)n1` [AS-14], for which, at human CB2 [2], the “CB2 Ki (μM, 95% CI)” value is reported as “no activity” and the “CB2 pKi ± SEM” value is given as “no activity”.

With `CN(Cc1ccccn1)C(=O)c1c2ccccc2c2n1CCCN(Cc1ccccc1)C2=O` [AS-15], at human CB2 [2], the “CB2 Ki (μM, 95% CI)” value is recorded as “no activity” and the “CB2 pKi ± SEM” value is on record as “no activity”.

With `Cc1cc(C)n(C[C@@H](O)c2ccc(-n3c4c(c5ccccc5c3=O)C(=O)c3ccccc3-4)cc2)n1` [AS-16], on human CB2 [2], the “CB2 Ki (μM, 95% CI)” value is “no activity” and the “CB2 pKi ± SEM” value was “no activity”.

As to `N#Cc1c(Oc2cccc(OS(=O)(=O)CCCC(F)(F)F)c2)cccc1C(F)(F)F` [BAY 59-3074], on human CB2 [1], the Ki was 45.5 nM.

Consider `CCCCCc1cc(O)c(C/C=C(\C)CCC=C(C)C)c(O)c1` [Cannabigerol], for which the Ki at human CB2 [1] is 2920 nM.

Turning to `CCCC(C)(C)c1ccc2c(c1)OC(C)(C)[C@@H]1CC=C(C)C[C@@H]21` [JWH-133], the Ki at human CB2 [1] was 3.4 nM.
